Test results: the supplement of paper PMC10307832

Key:
Test in all cases: relative viability (nuclei count vs DMSO), 5 days (fraction); higher = more cells survive
NCI-H838 = tested on: NCI-H838
Method in brief: (§1)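 The day after seeding in 1536-well plates, lung cancer cell lines were treated by pin tool with a single drug, or with a fixed anchor-drug dose together with five library-drug doses (not always all listed) in √10 steps. After 5 days, a combined fix-and-stain solution (final 0.05% Triton X-100, 1% formaldehyde, 1 ug/ml Hoechst) was added. Nuclei counted on 4× images gave relative viability as treated counts over vehicle counts, reported as the median of duplicate plates.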

NCI-H23 = tested on: NCI-H23
Method in brief: as §1

PC-3 [JPC-3] = tested on: PC-3 [JPC-3]
Method in brief: as §1

NCI-H441 = tested on: NCI-H441
Method in brief: as §1

NCI-H1666 = tested on: NCI-H1666
Method in brief: as §1

NCI-H647 = tested on: NCI-H647
Method in brief: as §1

NCI-H358 = tested on: NCI-H358
Method in brief: as §1

NCI-H322M = tested on: NCI-H322M
Method in brief: as §1

NCI-H727 = tested on: NCI-H727
Method in brief: as §1

SK-LU-1 = tested on: SK-LU-1
Method in brief: as §1

NCI-H596 = tested on: NCI-H596
Method in brief: as §1

NCI-H661 = tested on: NCI-H661
Method in brief: as §1

NCI-H520 = tested on: NCI-H520
Method in brief: as §1

NCI-H1437 = tested on: NCI-H1437
Method in brief: as §1

EKVX = tested on: EKVX
Method in brief: as §1

NCI-H1975 = tested on: NCI-H1975
Method in brief: as §1

NCI-H1792 = tested on: NCI-H1792
Method in brief: as §1

LCLC-97TM1 = tested on: LCLC-97TM1
Method in brief: as §1

NCI-H1915 = tested on: NCI-H1915
Method in brief: as §1

NCI-H460 = tested on: NCI-H460
Method in brief: as §1

For `CCNC(=O)c1noc(-c2cc(C(C)C)c(O)cc2O)c1-c1ccc(CN2CCOCC2)cc1` [Luminespib] + Cc1nc(NC(=O)N2CCC[C@H]2C(N)=O)sc1-c1ccnc(C(C)(C)C(F)(F)F)c1 [Alpelisib] (partner 2 µM), the relative viability (NCI-H838; first compound 0.002 µM) was 1.03, the relative viability (NCI-H838; first compound 0.006325 µM) was 0.927 and the relative viability (NCI-H838; first compound 0.02 µM) was 0.589. The relative viability (NCI-H838; first compound 0.06325 µM) was 0.168, the relative viability (NCI-H838; first compound 0.2 µM) was 0.153 and the relative viability (NCI-H23; first compound 0.002 µM) was 0.814. The relative viability (NCI-H23; first compound 0.006325 µM) was 0.56, the relative viability (NCI-H23; first compound 0.02 µM) was 0.504 and the relative viability (NCI-H23; first compound 0.06325 µM) was 0.141. It also gave a relative viability (NCI-H23; first compound 0.2 µM) of 0.116, a relative viability (PC-3 [JPC-3]; first compound 0.002 µM) of 1.09 and a relative viability (PC-3 [JPC-3]; first compound 0.006325 µM) of 0.908. For the same molecule, the relative viability (PC-3 [JPC-3]; first compound 0.02 µM) was 0.871, the relative viability (PC-3 [JPC-3]; first compound 0.06325 µM) was 1.08 and the relative viability (PC-3 [JPC-3]; first compound 0.2 µM) was 0.957. For the same molecule, the relative viability (NCI-H441; first compound 0.002 µM) was 0.619, the relative viability (NCI-H441; first compound 0.006325 µM) was 0.825 and the relative viability (NCI-H441; first compound 0.02 µM) was 0.739. For the same molecule, the relative viability (NCI-H441; first compound 0.06325 µM) was 0.126, the relative viability (NCI-H441; first compound 0.2 µM) was 0.148 and the relative viability (NCI-H1666; first compound 0.002 µM) was 1. The relative viability (NCI-H1666; first compound 0.006325 µM) was 1.01, the relative viability (NCI-H1666; first compound 0.02 µM) was 0.985 and the relative viability (NCI-H1666; first compound 0.06325 µM) was 1.01. For the same molecule, the relative viability (NCI-H1666; first compound 0.2 µM) was 0.795, the relative viability (NCI-H647; first compound 0.002 µM) was 1.25 and the relative viability (NCI-H647; first compound 0.006325 µM) was 1.12. It also gave a relative viability (NCI-H647; first compound 0.02 µM) of 1.03, a relative viability (NCI-H647; first compound 0.06325 µM) of 0.103 and a relative viability (NCI-H647; first compound 0.2 µM) of 0.0917. For the same molecule, the relative viability (NCI-H358; first compound 0.002 µM) was 0.841, the relative viability (NCI-H358; first compound 0.006325 µM) was 0.76 and the relative viability (NCI-H358; first compound 0.02 µM) was 0.635. It also gave a relative viability (NCI-H358; first compound 0.06325 µM) of 0.117, a relative viability (NCI-H358; first compound 0.2 µM) of 0.128 and a relative viability (NCI-H322M; first compound 0.002 µM) of 0.774. It also gave a relative viability (NCI-H322M; first compound 0.006325 µM) of 0.711, a relative viability (NCI-H322M; first compound 0.02 µM) of 0.588 and a relative viability (NCI-H322M; first compound 0.06325 µM) of 0.751. It also gave a relative viability (NCI-H322M; first compound 0.2 µM) of 0.807, a relative viability (NCI-H727; first compound 0.002 µM) of 0.553 and a relative viability (NCI-H727; first compound 0.006325 µM) of 0.584. For the same molecule, the relative viability (NCI-H727; first compound 0.02 µM) was 0.504, the relative viability (NCI-H727; first compound 0.06325 µM) was 0.234 and the relative viability (NCI-H727; first compound 0.2 µM) was 0.228. The relative viability (SK-LU-1; first compound 0.002 µM) was 1.33, the relative viability (SK-LU-1; first compound 0.006325 µM) was 0.7 and the relative viability (SK-LU-1; first compound 0.02 µM) was 0.305. It also gave a relative viability (SK-LU-1; first compound 0.06325 µM) of 0.18, a relative viability (SK-LU-1; first compound 0.2 µM) of 0.161 and a relative viability (NCI-H596; first compound 0.002 µM) of 0.517. The relative viability (NCI-H596; first compound 0.006325 µM) was 0.45, the relative viability (NCI-H596; first compound 0.06325 µM) was 0.44 and the relative viability (NCI-H596; first compound 0.2 µM) was 0.464. The relative viability (NCI-H661; first compound 0.002 µM) was 0.628, the relative viability (NCI-H661; first compound 0.006325 µM) was 0.608 and the relative viability (NCI-H661; first compound 0.02 µM) was 0.48. It also gave a relative viability (NCI-H661; first compound 0.06325 µM) of 0.322, a relative viability (NCI-H661; first compound 0.2 µM) of 0.184 and a relative viability (NCI-H520; first compound 0.002 µM) of 0.916. For the same molecule, the relative viability (NCI-H520; first compound 0.006325 µM) was 0.875, the relative viability (NCI-H520; first compound 0.02 µM) was 1.01 and the relative viability (NCI-H520; first compound 0.06325 µM) was 0.131. For the same molecule, the relative viability (NCI-H520; first compound 0.2 µM) was 0.15, the relative viability (NCI-H1437; first compound 0.002 µM) was 0.878 and the relative viability (NCI-H1437; first compound 0.006325 µM) was 0.919. It also gave a relative viability (NCI-H1437; first compound 0.02 µM) of 1.16, a relative viability (NCI-H1437; first compound 0.06325 µM) of 0.294 and a relative viability (NCI-H1437; first compound 0.2 µM) of 0.107. It also gave a relative viability (EKVX; first compound 0.002 µM) of 0.972, a relative viability (EKVX; first compound 0.006325 µM) of 0.928 and a relative viability (EKVX; first compound 0.02 µM) of 0.514. The relative viability (EKVX; first compound 0.06325 µM) was 1.07, the relative viability (EKVX; first compound 0.2 µM) was 0.315 and the relative viability (NCI-H1975; first compound 0.002 µM) was 0.667. For the same molecule, the relative viability (NCI-H1975; first compound 0.006325 µM) was 0.512, the relative viability (NCI-H1975; first compound 0.02 µM) was 0.233 and the relative viability (NCI-H1975; first compound 0.06325 µM) was 0.137. The relative viability (NCI-H1975; first compound 0.2 µM) was 0.126, the relative viability (NCI-H1792; first compound 0.002 µM) was 0.595 and the relative viability (NCI-H1792; first compound 0.006325 µM) was 0.621. It also gave a relative viability (NCI-H1792; first compound 0.02 µM) of 0.355, a relative viability (NCI-H1792; first compound 0.06325 µM) of 0.308 and a relative viability (NCI-H1792; first compound 0.2 µM) of 0.1. It also gave a relative viability (LCLC-97TM1; first compound 0.002 µM) of 0.286, a relative viability (LCLC-97TM1; first compound 0.006325 µM) of 0.254 and a relative viability (LCLC-97TM1; first compound 0.02 µM) of 0.19. For the same molecule, the relative viability (LCLC-97TM1; first compound 0.06325 µM) was 0.323, the relative viability (LCLC-97TM1; first compound 0.2 µM) was 0.194 and the relative viability (NCI-H1915; first compound 0.002 µM) was 1.09. For the same molecule, the relative viability (NCI-H1915; first compound 0.006325 µM) was 0.987, the relative viability (NCI-H1915; first compound 0.02 µM) was 0.862 and the relative viability (NCI-H1915; first compound 0.06325 µM) was 1.08. For the same molecule, the relative viability (NCI-H1915; first compound 0.2 µM) was 1.04, the relative viability (NCI-H460; first compound 0.002 µM) was 0.508 and the relative viability (NCI-H460; first compound 0.006325 µM) was 0.447. It also gave a relative viability (NCI-H460; first compound 0.02 µM) of 0.0191, a relative viability (NCI-H460; first compound 0.06325 µM) of 0.0086 and a relative viability (NCI-H460; first compound 0.2 µM) of 0.0122.
